Assay results as given in PMC9450014, “The evaluation of ADME and pharmacokinetic properties of decoquinate derivatives for the treatment of malaria” (Frontiers in Pharmacology, 2022).

Tests used:
[1] = In vivo pharmacokinetics, oral administration; set-up: species or system C57BL/6 mice; conditions: DQ quantified in whole blood after po 20 mg/kg of the O-carbamate, mice; for AUC0-∞ of DQ / Cmax: 20 mg/kg; for Cmax: read-out: Cmax of DQ
Procedure: Healthy C57BL/6 mice each weighing approximately 25 g were maintained at the University of Cape Town animal facility. Mice were housed in 27 × 21 × 28 cm cages (n = 3) under controlled environmental conditions at 22 ± 2°C, humidity of 55 ± 15% and a 12-hour light/dark cycle. Food and water were available ad libitum. Mice were acclimatised to the experimental environment for 4–5 days prior to initiating the experiments. RMB005, −059 and −060 were prepared in an aqueous solution of HPMC containing 0.2% Tween 80. The weighed compound was sonicated and vortexed to obtain a homogenous suspension. Oral dosing of 20 mg/kg was achieved via oral gavage. The total volume per administration was 200 μL. Blood samples were collected post-dose in lithium heparin microvials via tail bleeding at predetermined intervals at 0.5, 1, 3, 5, 8, 10, and 24 h. Samples were gently vortexed and stored at −80°C until analysis. A quantitative LC-MS/MS assay was used to determine whole-blood concentrations of RMB005, −059 and −060. Whole blood samples (20 μL) were treated with 100 μL ice cold acetonitrile containing the compound RMB073 used previously for determination of whole blood concentrations in analysis of TB-active compounds, as internal standard (200 ng/ml) ([Tanner et al., 2019]). The mixture was vortexed vigorously for 1 min, and 5 µL of the supernatant were injected onto the analytical column following centrifugation (5,590 g for 5 min). Gradient elution was carried out using a Gemini NX-C18 analytical column (5 μm, 2.1 mm × 50 mm). The aqueous mobile phase consisted of 5 mm ammonium acetate with 0.1% acetic acid in deionised water, while the organic phase consisted of 0.1% acetic acid in acetonitrile. A Shimadzu HPLC and reverse phase Gemini NX-C18 column coupled to an AB Sciex 3200 Q TRAP MS was operated at unit resolution in the multiple reaction monitoring (MRM) mode. […] The calibration standards ranged from 2 ng/mL to 3,000 ng/mL for RMB005, and 2 ng/mL to 4,000 ng/mL for RMB059, −060 and DQ. Drug concentration versus time plots for each compound were used to determine maximal drug concentration C max, time T max to reach C max, elimination half-life t 1/2 and the area under the concentration-time curve from time zero to infinity, AUC0-inf. From these values the following PK parameters—clearance CL, volume of distribution (Vd) and oral bioavailability (BA) were determined using the non-compartmental analysis Microsoft Excel Add-In PKSolver ([Zhang et al., 2010]).

[2] = In vivo pharmacokinetics, intravenous administration; set-up: species or system C57BL/6 mice; conditions: mice, 5 mg/kg per table footnote, 5 mg/kg; for t1/2 of DQ: DQ quantified in whole blood after iv dosing of the O-carbamate (RMB059 or RMB060); for CL of DQ / Vd of DQ: DQ quantified in whole blood after iv dosing of the O-carbamate
Procedure: Healthy C57BL/6 mice each weighing approximately 25 g were maintained at the University of Cape Town animal facility. Mice were housed in 27 × 21 × 28 cm cages (n = 3) under controlled environmental conditions at 22 ± 2°C, humidity of 55 ± 15% and a 12-hour light/dark cycle. Food and water were available ad libitum. Mice were acclimatised to the experimental environment for 4–5 days prior to initiating the experiments. […] The total volume of administration was 80 μL. Blood samples were collected post-dose in lithium heparin microvials via tail bleeding at predetermined intervals at 0.16, 0.5, 1, 3, 5, 8, 10, and 24 h. Samples were gently vortexed and stored at −80°C until analysis. A quantitative LC-MS/MS assay was used to determine whole-blood concentrations of RMB005, −059 and −060. Whole blood samples (20 μL) were treated with 100 μL ice cold acetonitrile containing the compound RMB073 used previously for determination of whole blood concentrations in analysis of TB-active compounds, as internal standard (200 ng/ml) ([Tanner et al., 2019]). The mixture was vortexed vigorously for 1 min, and 5 µL of the supernatant were injected onto the analytical column following centrifugation (5,590 g for 5 min). Gradient elution was carried out using a Gemini NX-C18 analytical column (5 μm, 2.1 mm × 50 mm). The aqueous mobile phase consisted of 5 mm ammonium acetate with 0.1% acetic acid in deionised water, while the organic phase consisted of 0.1% acetic acid in acetonitrile. A Shimadzu HPLC and reverse phase Gemini NX-C18 column coupled to an AB Sciex 3200 Q TRAP MS was operated at unit resolution in the multiple reaction monitoring (MRM) mode. […] The calibration standards ranged from 2 ng/mL to 3,000 ng/mL for RMB005, and 2 ng/mL to 4,000 ng/mL for RMB059, −060 and DQ. Drug concentration versus time plots for each compound were used to determine maximal drug concentration C max, time T max to reach C max, elimination half-life t 1/2 and the area under the concentration-time curve from time zero to infinity, AUC0-inf. From these values the following PK parameters—clearance CL, volume of distribution (Vd) and oral bioavailability (BA) were determined using the non-compartmental analysis Microsoft Excel Add-In PKSolver ([Zhang et al., 2010]).

SMILES: CCCCCCCCCCOc1cc2c(O)c(C(=O)OCC)cnc2cc1OCC [DQ from RMB059]
- Tmax of DQ [1]: 1.67 ± 0.67 h
- AUC0-∞ of DQ [1]: 101 ± 44 µmol·min/L
- Cmax [1]: 230 ± 50 nM
- t1/2 of DQ [2]: 4.79 ± 1.66 h
- CL of DQ [2]: 19.40 ± 3.14 mL/min/kg
- Vd of DQ [2]: 8.00 ± 2.96 L/kg

SMILES: CCCCCCCCCCOc1cc2c(O)c(C(=O)OCC)cnc2cc1OCC [DQ from RMB060]
- Tmax of DQ [1]: 1.67 ± 0.67 h
- AUC0-∞ of DQ [1]: 63 ± 9 µmol·min/L
- Cmax [1]: 110 ± 10 nM
- t1/2 of DQ [2]: 4.66 ± 1.16 h
- CL of DQ [2]: 21.50 ± 3.38 mL/min/kg
- Vd of DQ [2]: 8.88 ± 2.87 L/kg
